From ChEMBL document CHEMBL1159002, “Westiellamide, a bistratamide-related cyclic peptide from the blue-green alga Westiellopsis prolifica” (J Nat Prod, 1992)
The source made the active and inactive calls. No cut-off for these calls is given here.

Key:
Format in all cases: functional, cell-based
[1] = tested on: KB; assay: Cytotoxicity against human KB cells at 2 ug/ml
[2] = tested on: L1210; assay: Cytotoxicity against mouse L1210 cells by agar disk diffusion assay
[3] = tested on: LoVo; assay: Cytotoxicity against human LoVo cells at 2 ug/ml

CC(C)[C@@H]1NC(=O)[C@H]2N=C(O[C@@H]2C)[C@H](C(C)C)NC(=O)[C@H]2N=C(O[C@@H]2C)[C@H](C(C)C)NC(=O)[C@H]2N=C1O[C@@H]2C
Activity [1]: Active
Activity [2]: inactive
Activity [3]: Active
